{"source": "paper PMC6273488", "about": "“Synthesis and Biological Evaluation of Benzochromenopyrimidinones as Cholinesterase Inhibitors and Potent Antioxidant, Non-Hepatotoxic Agents for Alzheimer’s Disease” (Molecules, 2016)", "key": {"[1]": {"molecular_target": "T1, horse serum BuChE (eqBuChE) (Equus caballus, UniProt P81908)", "T1 construct": "BuChE from horse serum (lyophilized powder, Sigma-Aldrich); purchased Sigma-Aldrich; host or cells: horse serum", "T1 sequence (P81908 whole entry)": "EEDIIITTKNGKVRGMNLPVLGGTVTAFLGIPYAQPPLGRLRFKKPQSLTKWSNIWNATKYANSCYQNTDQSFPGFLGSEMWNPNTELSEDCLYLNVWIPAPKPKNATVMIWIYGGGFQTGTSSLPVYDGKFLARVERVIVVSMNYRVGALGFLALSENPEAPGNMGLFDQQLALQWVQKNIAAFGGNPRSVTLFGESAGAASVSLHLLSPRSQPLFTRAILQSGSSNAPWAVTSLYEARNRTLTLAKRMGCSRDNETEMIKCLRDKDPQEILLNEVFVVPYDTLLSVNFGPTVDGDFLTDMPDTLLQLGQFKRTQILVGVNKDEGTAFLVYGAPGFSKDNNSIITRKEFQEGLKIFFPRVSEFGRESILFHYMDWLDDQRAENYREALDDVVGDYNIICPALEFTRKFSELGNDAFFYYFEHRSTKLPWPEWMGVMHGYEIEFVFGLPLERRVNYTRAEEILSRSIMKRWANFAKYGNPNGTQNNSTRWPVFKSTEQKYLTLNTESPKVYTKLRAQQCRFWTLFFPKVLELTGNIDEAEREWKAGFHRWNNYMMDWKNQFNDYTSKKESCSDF", "settings": "cited from earlier work"}, "[2]": {"molecular_target": "T2, Electrophorus electricus AChE (EeAChE) (Electrophorus electricus, UniProt O42275)", "T2 construct": "purified AChE from Electrophorus electricus (Type V-S, Sigma-Aldrich); purchased Sigma-Aldrich Type V-S", "T2 sequence (O42275 24-633)": "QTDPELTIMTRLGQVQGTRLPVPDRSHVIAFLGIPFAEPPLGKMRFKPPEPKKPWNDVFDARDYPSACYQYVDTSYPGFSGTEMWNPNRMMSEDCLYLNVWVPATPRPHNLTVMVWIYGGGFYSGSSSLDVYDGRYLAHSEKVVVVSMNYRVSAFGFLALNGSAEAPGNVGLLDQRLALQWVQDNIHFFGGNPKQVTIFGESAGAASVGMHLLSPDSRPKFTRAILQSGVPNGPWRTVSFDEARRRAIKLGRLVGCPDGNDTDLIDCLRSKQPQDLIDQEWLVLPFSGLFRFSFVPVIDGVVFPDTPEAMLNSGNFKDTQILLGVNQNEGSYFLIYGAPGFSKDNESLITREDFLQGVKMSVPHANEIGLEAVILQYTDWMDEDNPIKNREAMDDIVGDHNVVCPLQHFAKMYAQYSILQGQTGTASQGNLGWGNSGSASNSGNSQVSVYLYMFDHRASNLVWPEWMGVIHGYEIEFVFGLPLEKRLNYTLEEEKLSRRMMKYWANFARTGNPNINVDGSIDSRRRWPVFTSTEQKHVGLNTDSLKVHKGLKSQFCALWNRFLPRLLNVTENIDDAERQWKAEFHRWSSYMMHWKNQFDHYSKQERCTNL", "settings": "cited from earlier work"}, "in vitro [3]": {"experiment": "in vitro", "assay_type": "cell-based", "settings": "24 h, MTT, read-out: In vitro toxicity (% cell viability)", "method": "(§1) A prerequisite for any effective lead drug is to keep its cytotoxicity at the lowest possible level. In this regard, we submitted the four most promising compounds (3Ab, 3Bb, 3Cb and 3Ba) to an in vitro toxicologic evaluation (MTT assay) using human hepatocellular carcinoma cell line (HepG2) which represents a good probe to evaluate hepatotoxic effects. […].\n(§2) HepG2 cells were purchased from American Type Culture Collection. The cells were cultured in Eagle’s Minimum Essential Medium (Ozyme, France) supplemented with 10% fetal bovine serum, 1X non-essential amino acids, 100 units/mL penicillin and […] streptomycin (Dutscher, Brumath, France). Cultures were kept under a CO2/air (5%/95%) humidified atmosphere at 37 °C. Prior to the experiment, cells were seeded in 96-well culture plates at a density of 0.1 × 10^6 cells per well. After 24 h of incubation, the culture medium was refreshed and 100 µL of the test compounds or DMSO (0.1%) were added. […] For the MTT assay, after 24 h of treatment, cells were incubated with 50 µL MTT (0.5 mg/mL, Sigma Aldrich, city, France) at 37 °C for 2 h. Plates were centrifuged, MTT was removed and 100 µL DMSO was distributed per well. The absorbance at 570 nm was measured using microplate reader (brand). Cell viability was expressed as percentage of cell viability compared to controls (DMSO, 0.1%)."}, "HepG2 cells": {"tested_on": "HepG2 cells", "experiment": "in vitro", "assay_type": "cell-based", "settings": "HepG2, MTT, concentrations up to 1000 μM", "method": "as §1, §2"}, "in vitro [4]": {"experiment": "in vitro", "settings": "PAMPA, pH 7.4", "method": "Penetration across the BBB is an essential property for compounds targeting the CNS. […] The filter membrane of the donor plate was coated with PBL (Polar Brain Lipid, Avanti, AL, USA) in dodecane (4 µL of 20 mg/mL PBL in dodecane) and the acceptor well was filled with 300 µL of PBS pH 7.4 buffer ([…]). Tested compounds were dissolved first in DMSO and that diluted with PBS pH 7.4 to reach the final concentration 100 µM in the donor well. […] 300 µL of the donor solution was added to the donor wells ([…]) and the donor filter plate was carefully put on the acceptor plate so that coated membrane was “in touch” with both donor solution and acceptor buffer. Test compound diffused from the donor well through the lipid membrane (Area = 0.28 cm^2) to the acceptor well. The concentration of the drug in both donor and the acceptor wells was assessed after 3, 4, 5 and 6 h of incubation in quadruplicate using the UV plate reader Synergy HT (Biotek, Winooski, VT, USA) at the maximum absorption wavelength of each compound."}, "[5]": {"settings": "ORAC-FL; cited from earlier work"}, "[6]": {"settings": "related alkaloid and synthetic compounds"}}, "note": "Read-outs that look alike come from different tables or passages of the source."}
{"smiles": "C[n+]1c2n(c(=O)c3ccccc31)CCc1c-2[nH]c2ccccc12", "note": "[II, dehydroevodiamine chloride]", "values": [{"measurement": "IC50", "setting": "[1]", "value": 8.4, "unit": "µM"}, {"measurement": "IC50", "setting": "[2]", "value": 6.3, "unit": "µM"}]}
{"smiles": "O=c1c2ccccc2nc2n1CCCC2", "note": "[Ib]", "values": [{"measurement": "IC50", "setting": "[1]; unit inferred", "value": "> 500", "unit": "µM"}, {"measurement": "IC50", "setting": "[2]; [6]", "value": 38.6, "unit": "µM"}]}
{"smiles": "O=c1c2ccccc2nc2n1CCCCC2", "note": "[Ic]", "values": [{"measurement": "IC50", "setting": "[1]; unit inferred", "value": "> 500", "unit": "µM"}, {"measurement": "IC50", "setting": "[2]; [6]", "value": 279, "unit": "µM"}]}
{"smiles": "Nc1c2c(nc3ccccc13)CCCC2", "note": "[Tacrine, tacrine, reference compound]", "values": [{"measurement": "viability at 24 h, 1 µM", "setting": "in vitro [3]; HepG2, 1 µM", "value": "105 ± 4.6", "unit": "%"}, {"measurement": "viability at 24 h, 3 µM", "setting": "in vitro [3]; HepG2, 3 µM", "value": "104 ± 8.7", "unit": "%"}, {"measurement": "viability at 24 h, 10 µM", "setting": "in vitro [3]; HepG2, 10 µM", "value": "97 ± 6.5", "unit": "%"}, {"measurement": "viability at 24 h, 30 µM", "setting": "in vitro [3]; HepG2, 30 µM", "value": "93 ± 2.7", "unit": "%"}, {"measurement": "viability at 24 h, 100 µM", "setting": "in vitro [3]; HepG2, 100 µM", "value": "95.2 ± 6", "unit": "%"}, {"measurement": "viability at 24 h, 300 µM", "setting": "in vitro [3]; HepG2, 300 µM", "value": "47.6 ± 5.6", "unit": "%"}, {"measurement": "viability at 24 h, 1 mM", "setting": "in vitro [3]; HepG2, 1 mM", "value": "13.9 ± 0.8", "unit": "%"}, {"measurement": "hepatotoxicity on HepG2 cells (in words)", "setting": "HepG2 cells", "value": "safe up to 100 µM but significantly decreased cell viability above 300 μM"}, {"measurement": "Papp", "setting": "in vitro [4]", "value": "5.3 ± 0.19", "unit": "×10⁻⁶ cm/s"}, {"measurement": "ORAC", "setting": "[5]", "value": "0.2 ± 0.1 [22] Trolox equivalents"}]}
